What was measured:
Assay type in all cases: in vivo
Anthonomus grandis [1] = assay: Spray test on young cotton plants, action against Anthonomus grandis adults; details: non-transgenic cotton treated with compound and conventional CryIIIA-toxin, each 100, 50, 10, 5, 1 ppm
Spodoptera spp. = assay: Maize plot spray test (KnockOut vs conventional maize), action against Spodoptera spp.; details: 6 days; for control (percentage reduction in population, % action): plot (a) maize cv. KnockOut, spray 200, 100, 50, 10, 5, 1 ppm, natural infestation; for control level: plot (b) conventional maize, compound 200, 100, 50, 10, 5, 1 ppm, then same ppm of the endotoxin expressed by KnockOut
Experimental: (§1) A plot (a) planted with maize cv. KnockOut® and an adjacent plot (b) of the same size which is planted with conventional maize, both showing natural infestation with Ostrinia nubilalis, Spodoptera spp. or Heliothis, are sprayed with an aqueous emulsion spray mixture comprising 200, 100, 50, 10, 5, 1 ppm of Ti-435. Immediately afterwards, plot (b) is treated with an emulsion spray mixture comprising 200, 100, 50, 10, 5, 1 ppm of the endotoxin expressed by KnockOut®. Evaluation takes place 6 days later. The percentage reduction in population (% action) is determined by comparing the number of dead pests on the plants of plot (a) with that on the plants of plot (b).
as §1, with “thiamethoxam.” for “Ti-435.”
as §1, with “imidacloprid.” for “Ti-435.”

Anthonomus grandis [2] = assay: Spray test on young cotton plants, action against Anthonomus grandis adults; details: spray 100, 50, 10, 5, 1 ppm, evaluation 3 to 10 days
Description: (§2) Young transgenic cotton plants which express the δ-endotoxin CryIIIA are sprayed with an aqueous emulsion spray mixture comprising 100, 50, 10, 5, 1 ppm of imidacloprid respectively. After the spray coating has dried on, the cotton plants are populated with 10 adult Anthonomus grandis, 10 Spodoptera littoralis larvae or 10 Heliothis virescens larvae respectively and introduced into a plastic container. Evaluation takes place 3 to 10 days later.
as §2, with “thiamethoxam” for “imidacloprid”
as §2, with “Ti-435” for “imidacloprid”
as §2, with “CryIa(c)” for “CryIIIA”, “Ti-435” for “imidacloprid”
as §2, with “CryIa(c)” for “CryIIIA”, “thiamethoxam” for “imidacloprid”
as §2, with “CryIa(c)” for “CryIIIA”

Spodoptera littoralis [3] = assay: Spray test on young cotton plants, action against Spodoptera littoralis larvae
Ostrinia nubilalis = assay: Maize plot spray test (KnockOut vs conventional maize), action against Ostrinia nubilalis; details: 6 days; for control (percentage reduction in population, % action): plot (a) maize cv. KnockOut, spray 200, 100, 50, 10, 5, 1 ppm, natural infestation; for control level: plot (b) conventional maize, compound 200, 100, 50, 10, 5, 1 ppm, then same ppm of the endotoxin expressed by KnockOut
Experimental: as §1
as §1, with “thiamethoxam.” for “Ti-435.”
as §1, with “imidacloprid.” for “Ti-435.”

Heliothis virescens [4] = assay: Spray test on young cotton plants, action against Heliothis virescens larvae; details: non-transgenic cotton treated with compound and conventional CryIIIA-toxin, each 100, 50, 10, 5, 1 ppm
Heliothis spp. = assay: Maize plot spray test (KnockOut vs conventional maize), action against Heliothis spp.; details: 6 days; for control (percentage reduction in population, % action): plot (a) maize cv. KnockOut, spray 200, 100, 50, 10, 5, 1 ppm, natural infestation; for control level: plot (b) conventional maize, compound 200, 100, 50, 10, 5, 1 ppm, then same ppm of the endotoxin expressed by KnockOut
Experimental: as §1
as §1, with “thiamethoxam.” for “Ti-435.”
as §1, with “imidacloprid.” for “Ti-435.”

Spodoptera littoralis [5] = assay: Spray test on young cotton plants, action against Spodoptera littoralis larvae; remark: listed apart in the source
Description: as §2
as §2, with “thiamethoxam” for “imidacloprid”
as §2, with “Ti-435” for “imidacloprid”
as §2, with “CryIa(c)” for “CryIIIA”, “Ti-435” for “imidacloprid”
as §2, with “CryIa(c)” for “CryIIIA”, “thiamethoxam” for “imidacloprid”
as §2, with “CryIa(c)” for “CryIIIA”

Heliothis virescens [6] = assay: Spray test on young cotton plants, action against Heliothis virescens larvae; details: spray 100, 50, 10, 5, 1 ppm, evaluation 3 to 10 days
Description: as §2
as §2, with “thiamethoxam” for “imidacloprid”
as §2, with “Ti-435” for “imidacloprid”, “later. […]” for “later.”

[7] = comparison arm for CryIIIA cotton
[8] = comparison arm for CryIa(c) cotton
[9] = transgenic cotton expressing δ-endotoxin CryIIIA, compared with non-transgenic plant
[10] = transgenic cotton expressing δ-endotoxin CryIa(c)
[11] = transgenic cotton expressing δ-endotoxin CryIIIA, spray 100, 50, 10, 5, 1 ppm, evaluation 3 to 10 days, compared with non-transgenic plant
[12] = non-transgenic cotton treated with compound and conventional CryIIIA-toxin, each 100, 50, 10, 5, 1 ppm, comparison arm for CryIa(c) cotton
[13] = transgenic cotton expressing δ-endotoxin CryIa(c), spray 100, 50, 10, 5, 1 ppm, evaluation 3 to 10 days

Structure (SMILES)	control of the tested insects (percentage reduction in population or feeding damage, % action) (Anthonomus grandis [1]; [7])	control of the tested insects (percentage reduction in population or feeding damage, % action) (Anthonomus grandis [1]; [8])	control (percentage reduction in population, % action) (Spodoptera spp.)	control level (Spodoptera spp.) [%]	control of the tested insects (percentage reduction in population or feeding damage, % action) (Anthonomus grandis [2]; [9])	control of the tested insects (percentage reduction in population or feeding damage, % action) (Anthonomus grandis [2]; [10])	control of the tested insects (percentage reduction in population or feeding damage, % action) (Spodoptera littoralis [3]; non-transgenic cotton treated with compound and conventional CryIIIA-toxin, each 100, 50, 10, 5, 1 ppm, comparison arm for CryIIIA cotton)	control of the tested insects (percentage reduction in population or feeding damage, % action) (Spodoptera littoralis [3]; [11])	control (percentage reduction in population, % action) (Ostrinia nubilalis)	control level (Ostrinia nubilalis) [%]	control of the tested insects (percentage reduction in population or feeding damage, % action) (Heliothis virescens [4]; [7])	control of the tested insects (percentage reduction in population or feeding damage, % action) (Heliothis virescens [4]; [8])	control (percentage reduction in population, % action) (Heliothis spp.)	control level (Heliothis spp.) [%]	control of the tested insects (percentage reduction in population or feeding damage, % action) (Spodoptera littoralis [5]; [12])	control of the tested insects (percentage reduction in population or feeding damage, % action) (Spodoptera littoralis [5]; [13])	control of the tested insects (percentage reduction in population or feeding damage, % action) (Heliothis virescens [6]; [9])	control of the tested insects (percentage reduction in population or feeding damage, % action) (Heliothis virescens [6]; [10])
CN/C(=N\[N+](=O)[O-])NCc1cnc(Cl)s1 [Ti-435]	insufficient	insufficient	Improved control	≤ 60	superior	superior	insufficient	superior	Improved control	≤ 60	insufficient	insufficient	Improved control	≤ 60	insufficient	superior	superior	superior
O=[N+]([O-])/N=C1\NCCN1Cc1ccc(Cl)nc1 [imidacloprid]	–	insufficient	Improved control	≤ 60	superior	superior	–	superior	Improved control	≤ 60	–	insufficient	Improved control	≤ 60	insufficient	superior	superior	superior

Source: US8399378B2, “Use of neonicotinoids in pest control” (Syngenta Crop Protection LLC, priority 1998, dated 2013)
